Measured values published in ChEMBL document CHEMBL1201862, “PubChem BioAssay data set” (2004).
Activity calls are given as the source filed them.

Columns and labels:
Cytochrome P450 2D6 = Cytochrome P450 2D6 (Homo sapiens, UniProt P10635);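 further: CYP2D6 member of a cytochrome P450 panel assay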
Cytochrome P450 2C9 = Cytochrome P450 2C9 (Homo sapiens, UniProt P11712)
Cytochrome P450 3A4 = Cytochrome P450 3A4 (Homo sapiens, UniProt P08684);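 further: CYP3A4 tested as one member of a cytochrome P450 panel screen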
Cytochrome P450 3A4, sequence (P08684 whole entry): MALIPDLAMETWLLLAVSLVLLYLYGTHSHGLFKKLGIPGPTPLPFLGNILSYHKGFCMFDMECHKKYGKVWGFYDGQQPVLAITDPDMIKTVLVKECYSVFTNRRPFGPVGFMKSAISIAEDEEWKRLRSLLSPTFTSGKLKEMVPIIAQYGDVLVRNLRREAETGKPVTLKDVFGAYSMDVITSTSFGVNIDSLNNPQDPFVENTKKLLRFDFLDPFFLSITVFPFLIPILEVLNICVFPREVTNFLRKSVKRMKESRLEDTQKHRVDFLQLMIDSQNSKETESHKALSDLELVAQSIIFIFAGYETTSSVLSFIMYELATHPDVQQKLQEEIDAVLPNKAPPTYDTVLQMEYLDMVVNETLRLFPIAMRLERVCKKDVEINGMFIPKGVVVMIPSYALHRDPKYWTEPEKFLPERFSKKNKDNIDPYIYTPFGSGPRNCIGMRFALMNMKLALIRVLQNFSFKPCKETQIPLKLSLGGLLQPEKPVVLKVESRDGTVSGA

Cytochrome P450 1A2 = biological target: T1, Cytochrome P450 1A2 (Homo sapiens, UniProt P05177);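 further: PubChem cytochrome P450 panel assay, CYP1A2 panel member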
T1 sequence (P05177 whole entry): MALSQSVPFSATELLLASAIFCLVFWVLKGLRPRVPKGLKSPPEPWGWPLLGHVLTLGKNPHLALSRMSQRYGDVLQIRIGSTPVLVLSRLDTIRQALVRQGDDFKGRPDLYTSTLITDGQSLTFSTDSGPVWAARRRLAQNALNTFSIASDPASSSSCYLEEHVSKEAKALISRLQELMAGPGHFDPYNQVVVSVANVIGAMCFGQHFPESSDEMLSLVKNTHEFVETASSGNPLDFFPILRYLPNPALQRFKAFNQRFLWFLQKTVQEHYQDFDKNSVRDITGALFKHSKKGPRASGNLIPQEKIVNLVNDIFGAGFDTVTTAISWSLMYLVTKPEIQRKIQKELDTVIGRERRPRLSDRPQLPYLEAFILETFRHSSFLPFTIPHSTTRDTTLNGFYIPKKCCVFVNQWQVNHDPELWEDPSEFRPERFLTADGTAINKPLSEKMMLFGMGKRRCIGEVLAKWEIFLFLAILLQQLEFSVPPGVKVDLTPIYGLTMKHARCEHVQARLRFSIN

Cytochrome P450 2C19 = Cytochrome P450 2C19 (Homo sapiens, UniProt P33261); assay: Cytochrome panel assay with activity outcomes. Panel member name: p450-cyp2c19 Compounds with AC50 equal or less than 10 uM are considered active; type: functional
Cytochrome P450 2C19, sequence (P33261 whole entry): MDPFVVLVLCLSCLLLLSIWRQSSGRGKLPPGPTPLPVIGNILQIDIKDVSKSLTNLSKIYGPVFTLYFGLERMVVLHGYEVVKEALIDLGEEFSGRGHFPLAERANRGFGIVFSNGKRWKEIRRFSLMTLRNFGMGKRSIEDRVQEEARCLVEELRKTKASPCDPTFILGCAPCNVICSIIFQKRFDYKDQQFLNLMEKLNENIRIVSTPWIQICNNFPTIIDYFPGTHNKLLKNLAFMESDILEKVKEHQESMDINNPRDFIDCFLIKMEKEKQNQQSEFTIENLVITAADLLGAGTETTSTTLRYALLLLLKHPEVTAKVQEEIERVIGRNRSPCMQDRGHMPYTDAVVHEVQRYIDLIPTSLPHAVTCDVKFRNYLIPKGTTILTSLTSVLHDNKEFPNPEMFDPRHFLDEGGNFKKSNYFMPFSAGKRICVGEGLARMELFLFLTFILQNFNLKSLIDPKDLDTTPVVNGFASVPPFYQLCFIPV

[1] = tested on: Streptococcus sp. 'group A'; assay: growth inhibition of control SK(-) GAS strain, dose response, counter-screen for streptokinase expression inhibitor project, luminescence, kanamycin, BacTiterGlo, confirmation (AID 1900); type: functional, organism-based
Streptokinase A = biological target: T2, Streptokinase A (Streptococcus pyogenes serotype M1, UniProt P10520); assay: S. pyogenes streptokinase expression inhibitors, potency, dose response, plasminogen activation absorbance, OD405 (AID 1914); type: functional, Streptococcus pyogenes M1 GAS;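 further: secreted streptokinase activity via plasminogen activation per viability signal from cell pellet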
T2 sequence (P10520 whole entry): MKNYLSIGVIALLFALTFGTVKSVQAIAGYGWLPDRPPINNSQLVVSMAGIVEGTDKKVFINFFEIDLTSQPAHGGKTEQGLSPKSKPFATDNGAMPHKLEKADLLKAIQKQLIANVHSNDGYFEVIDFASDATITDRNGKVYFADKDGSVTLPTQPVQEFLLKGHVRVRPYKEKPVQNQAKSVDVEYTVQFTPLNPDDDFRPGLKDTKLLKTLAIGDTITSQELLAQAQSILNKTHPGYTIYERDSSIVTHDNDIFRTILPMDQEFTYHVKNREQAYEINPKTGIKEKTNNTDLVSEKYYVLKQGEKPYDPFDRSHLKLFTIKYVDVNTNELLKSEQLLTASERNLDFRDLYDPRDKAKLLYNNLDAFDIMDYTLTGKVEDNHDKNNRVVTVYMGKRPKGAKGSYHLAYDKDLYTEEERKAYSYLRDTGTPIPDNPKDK

[2] = cytotoxicity toward NIH3T3 fibroblasts, dose response, counter-screen, cell-based, ATP luminescence, mouse fibroblasts (AID 2010); type: functional;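 further: cells exposed to compound for about 90 hours before reading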
[3] = HepG2 cell cytotoxicity, dose response, cytotoxicity control for Shn3 inhibitor project, CellTiter-Glo, cherry-picked (AID 624134); type: functional, cell-based
Streptococcus = assay: Group A Streptococcus viability loss, dose response, counter-screen for streptokinase expression inhibitor project, luminescence, BacTiterGlo (AID 1915); type: functional, organism-based;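 further: potency for reduction of bacterial viability or growth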
[4] = control 3'UTR Renilla luciferase suppression, dose response, counter-screen for Shn3 inhibitor project, cell-based, Clone20-Shn3RL, cherry-picked (AID 624133); type: functional
[5] = Shn3 3'UTR reporter inhibitors, dose response, cell-based, Clone20 osteoblasts, firefly luciferase, cherry-picked (AID 624132); type: functional;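 further: firefly luciferase luminescence from reporter carrying the Shn3 3'UTR in osteoblasts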
[6] = inhibitors of intracellular T. cruzi replication, confirmation, NIH3T3 host cells, beta-gal luminescence (AID 2044); type: functional, cell-based;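 further: intracellular parasites grown in NIH/3T3 mouse fibroblasts as host cells; luminescent beta-galactosidase reporter signal from transgenic T. cruzi replicating inside host cells; inhibitors lower the luminescence signal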
H9c2 = assay: cells; type: functional, cell-based; conditions: Rattus norvegicus, H9c2, Myocardium;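 further: confirmatory concentration-response retest of ultra-high-throughput screening hits for modulation of myocardial damage; cell death induced by hydrogen peroxide oxidative stress; compound pretreatment for 60 min then peroxide exposure for 2 h; potency is for protecting the cells against peroxide damage rather than for killing them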
P388 = assay: cells; type: functional; conditions: Mus musculus
SN12K1 = assay: cells; type: functional; conditions: Homo sapiens
P388/ADR = assay: cells; type: functional; conditions: Mus musculus
[7] = growth suppression of PTEN-null colon cells, dose response, cell-based, HCT116 PTEN knockout (AID 1047); type: functional;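 further: HCT116 colon tumor cells with PTEN knocked out; cells exposed to compound for 60 hours before readout; potency for loss of cell viability measured by luminescence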
[8] = growth suppression of beta-catenin-knockout colon cells, dose response, cell-based, HCT116, human colon tumor (AID 1045); type: functional;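 further: HCT116 colon tumor cells with beta catenin knocked out; cells exposed to compound for 60 hours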

Cytochrome P450 2C9, sequence (P11712 whole entry): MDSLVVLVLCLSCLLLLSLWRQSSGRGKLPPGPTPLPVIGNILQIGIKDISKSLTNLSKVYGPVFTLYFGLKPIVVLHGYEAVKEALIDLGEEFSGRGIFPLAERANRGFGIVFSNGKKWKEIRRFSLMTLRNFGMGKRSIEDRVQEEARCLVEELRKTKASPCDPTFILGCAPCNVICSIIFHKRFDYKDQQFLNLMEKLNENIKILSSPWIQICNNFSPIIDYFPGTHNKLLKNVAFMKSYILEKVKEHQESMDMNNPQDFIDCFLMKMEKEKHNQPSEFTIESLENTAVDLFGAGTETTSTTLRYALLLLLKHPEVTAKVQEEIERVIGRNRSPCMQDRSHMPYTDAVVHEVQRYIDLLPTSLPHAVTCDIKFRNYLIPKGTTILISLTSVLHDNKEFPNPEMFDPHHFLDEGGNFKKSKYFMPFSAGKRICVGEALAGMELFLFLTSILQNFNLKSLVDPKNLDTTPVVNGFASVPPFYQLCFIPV
Cytochrome P450 2D6, sequence (P10635 whole entry): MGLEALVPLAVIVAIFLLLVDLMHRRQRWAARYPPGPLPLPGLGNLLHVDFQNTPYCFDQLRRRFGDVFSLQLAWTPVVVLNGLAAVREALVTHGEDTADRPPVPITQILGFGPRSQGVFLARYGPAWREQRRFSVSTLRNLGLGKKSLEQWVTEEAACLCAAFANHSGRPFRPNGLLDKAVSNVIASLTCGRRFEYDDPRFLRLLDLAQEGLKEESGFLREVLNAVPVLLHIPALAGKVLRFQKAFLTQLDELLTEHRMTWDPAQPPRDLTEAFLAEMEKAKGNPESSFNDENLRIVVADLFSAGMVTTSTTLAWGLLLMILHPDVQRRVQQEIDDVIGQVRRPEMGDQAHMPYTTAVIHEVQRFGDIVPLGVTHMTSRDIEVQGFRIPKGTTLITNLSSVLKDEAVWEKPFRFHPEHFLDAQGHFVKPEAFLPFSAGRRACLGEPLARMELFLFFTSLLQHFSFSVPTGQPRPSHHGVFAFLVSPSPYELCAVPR

| Structure (SMILES) | AC50 (Cytochrome P450 2C9) | GI50 (P388) | GI50 (SN12K1) | GI50 (P388/ADR) | further results |
| --- | --- | --- | --- | --- | --- |
| CC(=O)N1c2c(cc(Br)cc2S(=O)(=O)NCC2COc3ccccc3O2)CC1C (stereo not drawn) | inconclusive |  |  |  | AC50 (Cytochrome P450 2D6): 17.8 µM (inconclusive) |
| CCCN(CCC)C[C@@H]1CCCCN1CCNC(=O)N1c2ccccc2C(=O)Nc2cccnc21 | inconclusive |  |  |  | AC50 (Cytochrome P450 3A4): 15.8 µM (inconclusive); AC50 (Cytochrome P450 1A2): 25.1 µM (inconclusive) |
| Cc1cc2nnc(SCCCCN3C(=O)c4ccccc4C3=O)n2c2ccccc12 | inconclusive |  |  |  |  |
| O=C1c2cccc([N+](=O)[O-])c2C(=O)N1c1ncn[nH]1 | inconclusive |  |  |  | AC50 (Cytochrome P450 2C19): inconclusive; AC50 (Cytochrome P450 3A4): 3.98 µM (inconclusive); AC50 (Cytochrome P450 1A2): 3.16 µM (inconclusive) |
| CCC(=O)NC(c1ccc(OC)c(OC)c1)c1cc(Cl)c2cccnc2c1O (stereo not drawn) |  |  |  |  | EC50 [1]: 4.86 µM (active); EC50 (Streptokinase A): > 150 µM (not active); EC50 [2]: 4.73 µM (active); AC50 [3]: 5.6 µM (active); EC50 (Streptococcus): > 150 µM (not active); AC50 [4]: 2.11 µM (active); AC50 [5]: < 0.26 µM (active); EC50 [6]: 0.96 µM (active) |
| Cc1ccc(C(C)C)cc1NC(=O)Nc1ccc([N+](=O)[O-])cc1 |  |  |  |  | EC50 [1]: 6.64 µM (active); EC50 (Streptokinase A): 10.8 µM (active); AC50 [3]: 22.4 µM (active); EC50 (Streptococcus): 17.5 µM (active); AC50 [4]: 6.53 µM (active); AC50 [5]: 7.19 µM (active) |
| CCCCCn1c(=N)n(CC(O)COc2ccccc2OC)c2ccccc21 (stereo not drawn) |  |  |  |  | AC50 [3]: 24.2 µM (active); AC50 [4]: 23.4 µM (active); AC50 [5]: 2.12 µM (active) |
| COc1ccc(/C=C(/C#N)C(=O)NC2CCCCC2)cc1Br | inconclusive |  |  |  | AC50 (Cytochrome P450 3A4): 25.1 µM (inconclusive) |
| CCCCOc1ccc(Br)cc1CSC(=N)N |  |  |  |  | AC50 [3]: 23.6 µM (active); AC50 [4]: 2.58 µM (active); AC50 [5]: 1.37 µM (active) |
| CC(C)NS(=O)(=O)c1ccc(CCC(=O)Nc2cc(Cl)ccc2Oc2ccccc2)cc1 |  |  |  |  | AC50 [3]: 57.7 µM (active); AC50 [4]: 22.5 µM (active); AC50 [5]: 7.65 µM (active) |
| O=C(Nc1ccccc1N1CCOCC1)c1ccccc1[N+](=O)[O-] | inconclusive |  |  |  | AC50 (Cytochrome P450 1A2): 12.6 µM (inconclusive) |
| COc1ccc(Oc2ncc3nc(-c4cn(C)c5ccccc45)c(=O)n(CCC#N)c3n2)cc1 | inconclusive |  |  |  | AC50 (Cytochrome P450 1A2): 2 µM (inconclusive) |
| COc1cc(-c2nnc(-c3ccc(N4CCOCC4)cc3)o2)cc(OC)c1OC | inconclusive |  |  |  | AC50 (Cytochrome P450 3A4): 7.94 µM (inconclusive); IC50 (H9c2): > 79 µM (inactive) |
| O=C(NC1CCCC1)C1CC(c2ccc(F)cc2)=NO1 (stereo not drawn) | inconclusive |  |  |  | AC50 (Cytochrome P450 3A4): 25.1 µM (inconclusive) |
| CN(C)c1ncc2nc(-c3cc(F)cc(F)c3)c(=O)n(CCC#N)c2n1 | inconclusive |  |  |  | AC50 (Cytochrome P450 3A4): 39.8 µM (inconclusive) |
| CCC[C@H]1C[C@H](C(=O)N[C@H]([C@@H]2O[C@H](SC)[C@@H](O)[C@H](O)[C@@H]2O)[C@H](C)O)N(C)C1 | inconclusive |  |  |  |  |
| CNc1nc(-c2ccccc2Cl)nc2ccccc12 | inconclusive |  |  |  | AC50 (Cytochrome P450 2D6): 39.8 µM (inconclusive) |
| CNC(=O)OCc1nc(SSC(C)(C)C)n(C)c1COC(=O)NC |  | 1.12 µM (inactive) | 5.13 µM (inactive) | 2.47 µM (inactive) |  |
| CC(C)c1ccc(NC(=O)Nc2nc(C(N)C3CCCCC3)cs2)cc1 (stereo not drawn) |  |  |  |  | AC50 [3]: 13.8 µM (active); AC50 [4]: 4.41 µM (active); AC50 [5]: 7.29 µM (active) |
| O=NN(CCCl)C(=O)N[C@H]1CC[C@@H](C(=O)O)CC1 |  | 5.14 µM (inactive) | 98.6 µM (inactive) | 5.26 µM (inactive) |  |

| Structure (SMILES) | AC50 (Cytochrome P450 2C9) | GI50 (P388) | GI50 (SN12K1) | GI50 (P388/ADR) | further results |
| --- | --- | --- | --- | --- | --- |
| ClCc1nnc2n1-c1ccc(Cl)cc1SC2 |  | 0.927 µM (active) | 2.83 µM (inactive) | 1.66 µM (inactive) |  |
| CCOC(=O)C1=C(c2ccccc2)N=c2s/c(=C\c3ccc(O)cc3)c(=O)n2C1c1cccs1 (stereo not drawn) | inconclusive |  |  |  | EC50 [7]: 19.7 µM (active); AC50 (Cytochrome P450 2C19; read-out: AC50): 3.98 µM (inconclusive); EC50 [8]: 17.9 µM (active) |
| Cc1c(N=NN(C)C)cc[n+]([O-])c1C |  | > 100 µM (inactive) | > 100 µM (inactive) | > 100 µM (inactive) |  |
| C=C/C(C)=C/[C@H](C)C(=O)C[C@H](O)CC1CC(=O)NC(=O)C1 |  | 9.86 µM (inactive) | 35.5 µM (inactive) | 27.2 µM (inactive) |  |
| O=c1cnn(C2OC(CO)C(O)C2O)c(=S)[nH]1 (stereo not drawn) |  | 1.92 µM (inactive) | 3.06 µM (inactive) | 0.933 µM (active) |  |
| C#CC[C@@]12CC(=O)C[C@@H]1CCC1(C2)OCCO1.C#CC[C@]12CC(=O)CC[C@H]1CC(=O)C2 |  | 23.7 µM (inactive) | > 100 µM (inactive) | 36.6 µM (inactive) |  |
| N/C(=N\O)N/N=C\c1cc([N+](=O)[O-])cc([N+](=O)[O-])c1O |  | 2.3 µM (inactive) | 0.743 µM (active) | 7.59 µM (inactive) |  |
| CCOC(=O)C(N)CSC(=O)NC (stereo not drawn) |  | 30.1 µM (inactive) | 44.1 µM (inactive) | 12.3 µM (inactive) |  |
| C/C([O-])=C(/c1nc(-c2ccc([N+](=O)[O-])o2)no1)[n+]1cc(C)ccc1C |  | 54.8 µM (inactive) | 13.4 µM (inactive) | > 100 µM (inactive) |  |
| CSc1nc2c(ncn2C2OCC(O)C(O)C2O)c(=O)n1C (stereo not drawn) |  | > 100 µM (inactive) | > 100 µM (inactive) | > 100 µM (inactive) |  |
| CCOC(=O)c1ccc(N[C@@H]2c3cc4c(cc3C(c3cc(OC)c(O)c(OC)c3)[C@H]3C(=O)OCC32)OCO4)cc1 (stereo partly drawn) |  | < 0.01 µM (active) | < 0.01 µM (active) | 0.0256 µM (active) |  |
| COc1cc(C2c3cc4c(cc3[C@@H](Nc3cccc(C(C)=O)c3)C3COC(=O)[C@H]23)OCO4)cc(OC)c1O (stereo partly drawn) |  | < 0.01 µM (active) | < 0.0361 µM (active) | 0.124 µM (active) |  |
| O=C(NC(c1ccccc1)C(O)C(=O)OCc1ccc2c(c1)C(=O)c1ccccc1C2=O)c1ccccc1 (stereo not drawn) |  | 90.2 µM (inactive) | 1.84 µM (inactive) | 33.8 µM (inactive) |  |
| COc1cc(C2c3cc4c(cc3[C@@H](Nc3ccc(N5CCOCC5)cc3)C3COC(=O)[C@H]23)OCO4)cc(OC)c1O (stereo partly drawn) |  | < 0.01 µM (active) | 1 µM (active) | 0.0735 µM (active) |  |
| CN(C(=O)c1ccc(OCCCC(=O)O)c(Cl)c1Cl)C1CCCC1 |  | > 100 µM (inactive) | > 89.5 µM (inactive) | > 100 µM (inactive) |  |
| CO[C@H]1C[C@](C)(O)Cc2cc3c(c(O)c21)C(=O)c1c(O)cc2c(c1C3=O)O[C@@H]1O[C@@]2(C)[C@H](O)[C@@H](N(C)C)[C@@H]1O |  | 0.054 µM (active) | 0.0736 µM (active) | 1.21 µM (inactive) |  |
| CC(=O)NCCCCCCNC(C)=O [HEXAMETHYLENEBISACETAMIDE] |  | 4260 µM (inactive) | 9930 µM (inactive) | 3520 µM (inactive) |  |
| O=C(O)Cc1nn(Cc2ccc(Br)cc2F)c(=O)c2ccccc12 [PONALRESTAT] | inconclusive |  |  |  | AC50 (Cytochrome P450 1A2): 31.6 µM (inconclusive) |
| COc1ccn(C)c(=O)c1C#N [RICININE] | inconclusive |  |  |  |  |
